Assay [1] has as its system vimentin. The assay can be described thus: Western blot of vimentin protein in HeLa cells. It is filed as cell-based, human. To be noted: APF 20 nM, 48 hours. As for the experimental part:
Western Blot Analysis—Cells were lysed in ice-cold RIPA buffer containing protease inhibitors (Pierce), sonicated, and centrifuged for 15 minutes at 4° C. The supernatant protein concentration was measured using a Folin reagent-based protein assay kit (BioRad). Proteins were separated by electrophoresis using 4-12% NuPAGE Novex Bis-Tris polyacrylamide gels in MOPS running buffer (Invitrogen) and then transferred to nitrocellulose. Membranes were blocked for 2 hours at room temperature in TBST buffer (Tris-buffered saline, pH 7.4, with 0.1% Tween 20) containing 5% nonfat milk and incubated with specific antibodies against vimentin (diluted 1:2000; BD Pharmingen) or ZO-1 (diluted 1:125; Zymed) overnight at 4° C. The membranes were subsequently washed with TBST, incubated for 1 hour at room temperature in HRP-conjugated goat anti-mouse (diluted 1:4000, Santa Cruz Biotechnology) or goat anti-rabbit (diluted 1:10000; Pierce) secondary antibodies, and developed by enhanced chemiluminescence (Pierce). To assess equal loading of protein, the membranes were stripped and reprobed for β-actin (diluted 1:5000; Sigma). […] The protein bands of interest were quantified using ImageJ and the integrated signal densities normalized first to β-actin (the loading control) and subsequently expressed in terms of the fractional abundance relative to untreated control cells.
A general note: Immunoblotting shows a protein as a band on a membrane.

Assay [2] relates to ZO-1 mRNA. The experiment in a line: Quantitative real-time PCR of ZO-1 mRNA in NB cells. It is filed as cell-based, human. Conditions: 2.5 nM APF alone or with nonsense siRNA, 48 hours, normalized to β-actin. As for the experimental part: (§1) RNA was assessed by visualization of the 28S/18S ribosomal RNA ratio on a 1% agarose gel, and total RNA concentration determined by measuring the absorbance of each sample at 260 nm and 280 nm using a Gene Quant RNA/DNA Calculator (Pharmacia Biotech). Quantitative real-time PCR for gene expression was performed using Quantitect Primers (Qiagen), SYBR Green RT-PCR kit reagents (Qiagen), and a Roche System II Light-Cycler (software version 3.5). Samples were tested in triplicate runs, and specific mRNA levels quantified and compared to mRNA levels for β-actin using real-time PCR analysis software from Applied Biosystems.
(In general: Quantitative PCR measures a nucleic acid by following its amplification.)

Assay [3] relates to normal primary bladder (NB) epithelial cells. The experiment in a line: 3H-thymidine incorporation (cell proliferation), NB epithelial cells. It is filed as cell-based, human. Conditions: APF 0.25-250 nM, 48 hours, serum starvation. As for the experimental part:
Normal primary bladder (NB) epithelial cells were isolated from patients as previously described (Conrads et al., 2006; Keay et al., 2000; Keay et al., 2004; Keay et al., 1996). Cells were propagated in DMEM-F12 (Media-Tech) with 10% heat inactivated FBS, 1% antibiotic/antimycotic solution, 1% L-glutamine, 0.25 U/ml insulin (Sigma), and 5 ng/ml human epidermal growth factor (R & D Systems) at 37° C. in a 5% CO2 atmosphere, and characterized by binding of AE-1/AE-3 pancytokeratin antibodies (Signet) as previously described (Keay et al., 1996; Keay et al., 2004).
^3H-Thymidine Incorporation—Cell proliferation was measured by 3H-thymidine incorporation into the DNA of HeLa or NB epithelial cells. […] Cells were then incubated at 37° C. in a 5% CO2 atmosphere for 48 hours. The cell contents were harvested and methanol-fixed onto glass fiber filter paper, and the amount of radioactivity incorporated determined. Significant inhibition of ^3H-thymidine incorporation was defined as a mean decrease in counts per minute of greater than 2 standard deviations from the mean of control cells for each plate.
In general terms: Uptake of a labelled nucleoside into DNA is a usual measure of proliferation.

Assay [4] has as its system HeLa cells. The experiment in a line: 3H-thymidine incorporation (cell proliferation), HeLa cells. It is filed as cell-based, human. To be noted: APF 0.25-250 nM, 48 hours, serum starvation. As to the method: Cell proliferation was measured by 3H-thymidine incorporation into ZDHHC2 siRNA-treated HeLa cells. Briefly, electroporated cells that received ZDHHC2 or control nonsense siRNA were plated into 96 well culture plates and incubated at 37° C. in a 5% CO2 atmosphere for 96 hours. Purified lyophilized synthetic APF was re-suspended in acetonitrile/distilled water (1:1), diluted in serum-free MEM (containing only glutamine and antibiotics/antimycotics), and applied to HeLa cells; cell controls received acetonitrile/distilled water diluted in serum-free MEM alone. Cells were then incubated for an additional 48 hours. The cell contents were harvested and methanol-fixed onto glass fiber filter paper, and the amount of radioactivity incorporated determined. Significant inhibition of ^3H-thymidine incorporation was defined as a mean decrease in counts per minute of greater than 2 standard deviations from the mean of control cells for each plate.
siRNA—Double-stranded siRNA targeting ZDHHC2 (available from GenBank/EMBL/DDBJ under accession no. NM_016353) was purchased from Dharmacon (ON-TARGET plus). […]
^3H-Thymidine Incorporation—Cell proliferation was measured by 3H-thymidine incorporation into the DNA of HeLa or NB epithelial cells. […] The cell contents were harvested and methanol-fixed onto glass fiber filter paper, and the amount of radioactivity incorporated determined. […]

In assay [5] the test system is vimentin mRNA. The assay can be described thus: Quantitative real-time PCR of vimentin mRNA in NB cells. In kind it is cell-based, human. To be noted: 2.5 nM APF alone or with nonsense siRNA, 48 hours, normalized to β-actin. As to the method:
as §1

The subject of assay [6] is E-cadherin mRNA. The experiment in a line: Quantitative real-time PCR of E-cadherin mRNA in NB cells. It is filed as cell-based, human. To be noted: 2.5 nM APF alone or with nonsense siRNA, 48 hours. As for the experimental part: as §1
For assay [7], the system named is bladder epithelial cell. Conditions: cited from earlier work.
In assay [8] the test system is CKAP4/p63. The experiment in a line: Immunofluorescent localization of CKAP4/p63 in HeLa cells. In kind it is cell-based, human. To be noted: APF 20 nM, 48 hours. As for the experimental part:
Double stranded siRNA targeting ZDHHC2 was purchased from Dharmacon. HeLa cells or cells explanted from IC patients (IC cells) were trypsinized for 10 minutes at room temperature, centrifuged in growth medium (MEM with 10% heat inactivated FBS, 1% antibiotic/antimycotics solution, and 1% L glutamine), and the cell pellet was resuspended in serum-free medium at a density of 1×10^4 cells/ml. One mL of the cell suspension was then transferred to a sterile 2 mm cuvette with 20 μM siRNA, and electroporated at 160 V/500 μF capacitance using a BioRad Gene Pulser Xcell. HeLa cells were then plated onto a 96 well plate for the thymidine incorporation assay, and both HeLa and IC cells were plated onto an 8 well Lab-Tek tissue culture slide for confocal microscopy.
For confocal microscopy, after 96 hours of incubation the medium was removed from the wells and cells were fixed using ethanol/acetone (1:1) for 15 min at room temperature, washed three times with 1×PBS, and incubated with mouse monoclonal anti-CKAP4/p63 antibodies (“anti-CLIMP-63”, clone G1/296; Alexis Biochemicals) in PBS, for 2 hrs at 37° C. Cells were then washed three times with PBS and further incubated with fluorescein isothiocyanate (FITC)-labeled secondary antibody diluted in PBS (goat anti-Mouse IgG 1:2000; Zymed) for 2 hrs at 37° C. […]

Regarding “Sialoglycopeptide: sialic acid α-2,3 galactose β1-3-N-acetylgalactosamine α-O-linked to N-terminal threonine of Frizzled 8 nonapeptide (TVPAAVVVA) [APF, antiproliferative factor]”, the “expression of vimentin following APF treatment” value in assay [1] is on record as “reduced”. Moreover, the “reduction of ZO-1 mRNA levels” value in assay [2] is given as ~93%. Besides, in assay [3], the “inhibition of NB cell proliferation (3H-thymidine incorporation)” value is recorded as “concentration dependent manner”. In assay [4], the “inhibition of HeLa cell proliferation (3H-thymidine incorporation)” value is reported as “concentration dependent manner”. Moreover, the “reduction of vimentin mRNA levels” value in assay [5] is ~97%. The “change of E-cadherin mRNA levels” value in assay [6] is given as “dramatically increased”. In assay [7], the “EC50 (potency of APF)” value was “picomolar range”. In addition, the “CKAP4 localization after APF treatment” value in assay [8] is “translocated to the nucleus and nucleolus”.

Source of the values: patent US8404655B2, “Inhibition of palmitoyl acyl transferase expression and/or activity for the regulation of antiproliferative factor activity” (University of Florida Research Foundation, Inc., priority 2007, dated 2013).
